Laboratory results reported in the supplement of paper PMC10307832.

Tests used:
Test in all cases: relative viability (nuclei count vs DMSO), 5 days (fraction); higher = more cells survive
[1] = compound: CCOC(=O)CCNc1cc(N2CCc3ccccc3CC2)nc(-c2ccccn2)n1 [GSK-J4] + N=C(N)NC(=N)NCCc1ccccc1 [Phenformin] (partner 250 µM)
Method in brief: (§1)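 Values are medians from duplicate plates. Each reflects relative viability, defined as the nuclei count of treated wells over that of vehicle wells. Lung cancer cell lines in 1536-well plates were pin-tool dosed one day after seeding with one drug alone or with a fixed anchor-drug dose plus five library-drug doses (not always all listed) in √10 steps, then fixed, stained and imaged at 4× after 5 days.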

[2] = compound: CN1CCC(CC1)OC2=CC(=C(C=C2)NC3=NC=C4C(=N3)N(C(=O)N4C)C5CCCC5)OC [AZ3146] + CC(=O)Nc1cccc(-n2c(=O)n(C3CC3)c(=O)c3c(Nc4ccc(I)cc4F)n(C)c(=O)c(C)c32)c1 [Trametinib] (partner 0.02 µM)
Method in brief: as §1

[3] = compound: CN1CCC(CC1)OC2=CC(=C(C=C2)NC3=NC=C4C(=N3)N(C(=O)N4C)C5CCCC5)OC [AZ3146] + CS(=O)(=O)N1CCN(Cc2cc3nc(-c4cccc5[nH]ncc45)nc(N4CCOCC4)c3s2)CC1 [Pictilisib] (partner 1 µM)
Method in brief: as §1

[4] = compound: CN1CCC(CC1)OC2=CC(=C(C=C2)NC3=NC=C4C(=N3)N(C(=O)N4C)C5CCCC5)OC [AZ3146] + O=C(CCCCCCC(=O)Nc1ccccc1)NO [Vorinostat] (partner 1 µM)
Method in brief: as §1

| Cell Line | relative viability ([1]; first compound 0.5 µM) | relative viability ([1]; first compound 1.581 µM) | relative viability ([1]; first compound 15.81 µM) | relative viability ([1]; first compound 50 µM) | relative viability ([2]; first compound 0.253 µM) | relative viability ([2]; first compound 0.8 µM) | relative viability ([2]; first compound 2.53 µM) | relative viability ([2]; first compound 8 µM) | relative viability ([3]; first compound 0.08 µM) | relative viability ([3]; first compound 0.253 µM) | relative viability ([3]; first compound 0.8 µM) | relative viability ([3]; first compound 2.53 µM) | relative viability ([3]; first compound 8 µM) | relative viability ([4]; first compound 0.253 µM) | relative viability ([4]; first compound 0.8 µM) | relative viability ([4]; first compound 2.53 µM) | relative viability ([4]; first compound 8 µM) | relative viability ([1]; first compound 5 µM) | relative viability ([2]; first compound 0.08 µM) | relative viability ([4]; first compound 0.08 µM) |
| --- | --- | --- | --- | --- | --- | --- | --- | --- | --- | --- | --- | --- | --- | --- | --- | --- | --- | --- | --- | --- |
| LU99A | 0.866 | 0.671 | 0.757 | 0.554 | 0.501 | 0.567 | 0.68 | 0.579 | 0.318 | 0.351 | 0.32 | 0.376 | 0.351 | 0.507 | 0.503 | 0.514 | 0.481 | – | – | – |
| LXF-289 | 0.506 | 0.445 | 0.53 | 0.515 | 0.688 | 0.633 | 0.651 | 0.633 | 0.693 | 0.776 | 0.779 | 0.824 | 0.642 | 0.827 | 0.796 | 0.872 | 0.587 | 0.408 | 0.629 | 0.752 |
| NCI-H23 | 0.71 | 0.723 | 0.648 | 0.671 | 0.354 | 0.391 | 0.422 | 0.402 | 0.453 | 0.568 | 0.483 | 0.494 | 0.451 | 0.593 | 0.572 | 0.769 | 0.377 | 0.627 | 0.455 | 0.473 |
| NCI-H322M | 0.788 | 0.553 | 0.729 | 0.545 | 0.45 | 0.435 | 0.537 | 0.527 | 0.585 | 0.478 | 0.439 | 0.491 | 0.512 | 0.839 | 0.916 | 0.904 | 0.849 | 0.806 | 0.555 | 0.798 |
| NCI-H522 | 0.64 | 0.656 | 0.543 | 0.588 | 0.687 | 0.747 | 0.64 | 0.74 | – | – | – | – | – | 0.695 | 0.945 | 0.903 | 0.835 | 0.595 | 0.749 | 0.66 |
| NCI-H1299 | – | – | – | – | – | – | – | – | 0.786 | 0.976 | 0.677 | 0.734 | 0.264 | – | – | – | – | – | – | – |
| NCI-H1563 | 0.665 | 0.71 | 0.56 | 0.656 | – | – | – | – | 0.636 | 0.641 | 0.729 | 0.685 | 0.604 | – | – | – | – | 0.607 | – | – |
| NCI-H1648 | – | – | – | – | – | 0.219 | 0.563 | 0.568 | – | – | – | – | – | – | 0.554 | 0.498 | 0.634 | – | – | – |
| NCI-H1703 | – | – | – | – | – | – | – | – | 0.254 | 0.258 | 0.231 | 0.228 | 0.234 | – | – | – | – | – | – | – |
| NCI-H1792 | 0.267 | 0.258 | 0.529 | 0.318 | 0.38 | 0.415 | 0.421 | 0.516 | 0.211 | 0.238 | 0.32 | 0.339 | 0.285 | – | – | – | – | 0.185 | 0.37 | – |
| NCI-H2342 | 0.652 | 0.629 | 0.706 | 0.595 | 0.741 | 0.989 | 0.89 | 0.89 | – | – | – | – | – | 0.688 | 1.01 | 0.695 | 0.764 | 0.573 | 0.715 | 0.705 |
| SW 900 | 0.581 | 0.592 | 0.402 | 0.246 | – | 0.557 | 0.706 | 0.819 | – | – | – | – | – | – | 0.393 | 0.48 | 0.446 | 0.617 | 0.696 | 0.465 |
